Experimental findings from the Deep4Chem optical property database are described below.

This series in a line: solvent given as SMILES.

On to `c1ccc(-c2nc(-c3ccccc3)nc(-c3ccccc3-n3c4ccccc4c4c5oc6ccccc6c5ccc43)n2)cc1`, for which the emission maximum was found to be 438.08 nm (in C1CCCCC1), 492.26 nm (in C1CCOC1), 474.61 nm (in Cc1ccccc1) and 456.95 nm (in O=P(c1ccccc1)(c1ccccc1)c1ccccc1Oc1ccccc1P(=O)(c1ccccc1)c1ccccc1).
Take `Cc1ccc(C2=C3C=CC=[N+]3[B-](F)(F)n3cccc32)cc1`: the emission maximum by setting is: (in C1CCCCC1) 516 nm; (in CC#N) 514.5 nm; (in CCO) 514.5 nm; (in CCOC(C)=O) 514.5 nm; (in CO) 513.5 nm; (in OCC(F)(F)F) 509.5 nm.
Turning to `CC1=[N+]2C(=Cc3ccc(C)n3[B-]2(F)F)C=C1c1cc2n(c1)[B-](F)(F)[N+]1=CC=CC1=C2c1c(C)cc(C)cc1C`, the emission maximum reads like this: (in C1CCCCC1) 636 nm; (in CCOC(C)=O) 683 nm.
Consider `CCC1=C(C)C(=O)n2c1cc1c(C)c(CCC(=O)OC)c(C)n1c2=O`, for which the emission maximum by setting is: (in CO) 530 nm; (in CS(C)=O) 505 nm; (in ClC(Cl)Cl) 495 nm; (in c1ccccc1) 470 nm.
Take `c1ccc(-c2nc(-c3ccccc3)nc(-c3ccc(N4c5ccccc5C5(c6ccccc64)c4ccccc4C4(c6ccccc6-c6ccccc64)c4ccccc45)cc3)n2)cc1`: under “in Cc1ccccc1”, the emission maximum came to 475.42 nm.
In the case of `CC1(C)C(/C=C/C=C/C=C/C=C2/N(CCCCCC(=O)O)c3ccc(S(=O)(=O)[O-])cc3C2(C)C)=[N+](CCCCS(=O)(=O)[O-])c2ccc(S(=O)(=O)[O-])cc21`, the emission maximum is, setting by setting: (in CO) 774 nm; (in O) 771 nm.
`CC(C)(C)OC(=O)NCCCC(=O)OCc1ccc2c3cccc4cccc(c5cccc1c52)c43` gave an emission maximum (in CCO) of 446 nm.
In the case of `F[B-]1(F)n2c(nc(Br)c2Br)-c2cccc[n+]21`, the emission maximum is, setting by setting: (in C1CCCCC1) 463 nm; (in C1CCOC1) 484 nm; (in C1COCCO1) 493 nm; (in CC#N) 492 nm; (in CCCCCC) 464 nm; (in CO) 487 nm. Also, under “in ClC(Cl)Cl”, the emission maximum worked out at 469 nm.
`C1=Cc2ccc(N(c3ccccc3)c3cccc4ccccc34)cc2C2(c3cc(N(c4ccccc4)c4cccc5ccccc45)ccc31)c1ccccc1-c1ccccc12` gave an emission maximum (in ClCCl) of 454 nm.
Same read-out and setting: with `CCOC(=O)C1=C(C(=O)OCC)C2(c3cc(Cl)ccc3-c3ccc(Cl)cc32)C2(/C=C/c3ccccc3)c3cc(OC)c(OC)cc3CCN12` (stereo unspecified) the figure was 456 nm; with `COCCOCCOCCOCC(COCCOCCOCCOC)Oc1cc(/C=C/c2ccc(/C=C(\C#N)C(=O)c3ccccc3)cc2)c(OC(COCCOCCOCCOC)COCCOCCOCCOC)cc1/C=C/c1ccc(/C=C(\C#N)C(=O)c2ccccc2)cc1`, 621 nm.
`Fc1nc(F)c(F)c(C#Cc2ccccc2C#Cc2c(F)c(F)nc(F)c2F)c1F` gave an emission maximum (in CC#N) of 370 nm.
For `CN1CCCc2cc3c(C(F)(F)F)cc(=O)oc3cc21`, the emission maximum by setting is: (in C1CCCCC1) 439 nm; (in CC#N) 510 nm; (in CCO) 515 nm.
Regarding `Cc1ccc(C2=C3C=CC(Nc4ccccc4)=[N+]3[B-](F)(F)n3c(Nc4ccccc4)ccc32)cc1`, under “in CO”, the emission maximum was determined as 613 nm.
Under “in O”, `COc1ccc(C2=C3C=CC(=[N+](C)C)C=C3[Si](C)(C)c3cc(N(C)C)ccc32)c(OC)c1` returned an emission maximum of 663 nm.
Take `CC(C)(C)c1ccc2c(c1)c1cc(C(C)(C)C)cc3c1n2B1c2c-3cccc2-c2cc(C(C)(C)C)cc3c4cc(C(C)(C)C)ccc4n1c23`: the emission maximum (in C1CCOC1) amounted to 384 nm.
On to `CC(=O)OCCN1C(=O)c2cccc3c(Oc4ccccc4C)ccc(c23)C1=O`, for which the emission maximum (in ClC(Cl)Cl) came out at 419 nm.
Where the note is “in ClCCl”, `N#C/C(=C\c1ccc(/C=C/c2ccc(N(c3ccccc3)c3ccccc3)cc2)s1)C(=O)O` registered an emission maximum of 676 nm.
Still for that read-out and setting: with `Cc1cccc(-c2c3ccccc3cc3ccccc23)n1` the figure was 418 nm.
`F[B-]1(F)n2cccc2C(c2c3ccccc3cc3ccccc23)=C2C=CC=[N+]21` yielded an emission maximum (in CC#N) of 519 nm; an emission maximum (in CCCCCC) of 521 nm; an emission maximum (in CCO) of 520 nm; an emission maximum (in CN(C)C=O) of 524 nm; an emission maximum (in Cc1ccccc1) of 525 nm; an emission maximum (in ClCCl) of 520 nm.
`C#Cc1ccc(-c2c3nc(c(-c4ccc(C#C)cc4)c4ccc([nH]4)c(-c4cc(C(C)(C)C)cc(C(C)(C)C)c4)c4cc(c(-c5cc(C(C)(C)C)cc(C(C)(C)C)c5)c5ccc2[nH]5)C=N4)C=C3)cc1` gave an emission maximum (in ClCCl) of 744 nm.
Consider `CCC1=C(C)C2=C(/C=C/Sc3ccccc3)c3c(C)c(CC)c(C)n3[B-](F)(F)[N+]2=C1C`, for which the emission maximum (in ClCCl) turned out to be 580 nm.
Compound `F[B-]1(F)n2c(c3ccccc3c2-c2ccccc2)C(c2ccccc2)=C2c3ccccc3C(c3ccccc3)=[N+]21` gave an emission maximum (in ClCCl) of 664 nm.
For the setting “in Cc1ccccc1”, `CC(C)(C)c1ccc(-c2nnc(-c3c(-n4c5ccccc5c5ccccc54)c(-n4c5ccccc5c5ccccc54)c(-n4c5ccccc5c5ccccc54)c(-n4c5ccccc5c5ccccc54)c3-n3c4ccccc4c4ccccc43)o2)cc1` returned an emission maximum of 482 nm.
On to `C(#Cc1ccc(C#Cc2ccccc2)cc1)c1ccccc1`, for which the emission maximum (in ClC(Cl)Cl) was 348 nm.
In turn, `Cc1nn(-c2ccccc2)c(C2=NN(c3ccc(Br)cc3)[C@@H](c3ccccc3)[C@@H]2c2ccccc2)c1C#N` yielded an emission maximum (in C1CCCCC1) of 468 nm; an emission maximum (in C1CCOC1) of 483 nm; an emission maximum (in C1COCCO1) of 481 nm; an emission maximum (in CC#N) of 491 nm; an emission maximum (in CCCCCCC) of 467 nm; an emission maximum (in CCO) of 493 nm. Besides, the emission maximum came out at 492 nm (in CN(C)C=O), 496 nm (in CO), 485 nm (in O) and 500 nm (in OCCO).
`Cc1cc(-n2c3ccccc3c3ccccc32)ccc1-c1ccc(S(=O)(=O)c2ccccc2)cc1C`: the emission maximum runs as follows: (in C1CCOC1) 401.77 nm; (in CC#N) 450.48 nm; (in Cc1ccccc1) 349 nm; (in ClCCl) 419.86 nm.
For the compound `Cc1cc2c(cc1N1c3ccccc3C(C)(C)c3ccccc31)C(C)(C)c1cc(N3c4ccccc4C(C)(C)c4ccccc43)c(C)cc1S2(=O)=O`, the emission maximum was determined as 442.11 nm (in Cc1ccccc1) and 495 nm (in ClCCl).
With `CC[N+](CC)=c1ccc2cc3c(oc-2c1)-c1ccc(N(C)C)cc1CC3`, the emission maximum reads like this: (in CCO) 644 nm; (in ClCCl) 642 nm; (in O) 641 nm.
`CCOC(=O)CCCCCn1c2ccc(OC)cc2c(=O)c2cc3c(cc21)c(=O)c1cc(OC)ccc1n3CCCCCC(=O)OCC` gave an emission maximum (in CCO) of 592 nm.
As to `c1ccc(-c2ccc3c4ccc(-c5ccccc5)c5c(-c6ccccc6)ccc(c6ccc(-c7ccccc7)c2c36)c54)cc1`, where the note is “in ClCCl”, the emission maximum was found to be 520 nm.
Still for that read-out and setting: with `CCOC(=O)C1=C(C(=O)OCC)C2(c3ccccc3-c3ccccc32)[C@@H](c2ccc([N+](=O)[O-])cc2)C=C2c3cc(OC)c(OC)cc3CCN21` the figure was 430 nm.
`CN(CCO)c1ccc(/N=N/c2ccc([N+](=O)[O-])cc2)cc1` came in with an emission maximum (in CO) of 580 nm, an emission maximum (in OCC(O)CO) of 581 nm, an emission maximum (in OCCO) of 583 nm and an emission maximum (in Oc1ccccc1) of 581 nm.
As for `CCC1=C(C)C2=Cc3c4ccccc4c4n3[B-](C)(Oc3ccccc3-4)[N+]2=C1C` (stereo unspecified), the emission maximum is, setting by setting: (in CC#N) 630 nm; (in CCCCCC) 632 nm; (in Cc1ccccc1) 636 nm; (in ClCCl) 635 nm.
With `O=C1c2cccc3c(-n4c5ccccc5c5ccccc54)ccc(c23)C(=O)N1C1CCCCC1`, the emission maximum (in C1CCOC1) came to 546 nm, the emission maximum (in CCCCCC) came out at 441 nm, the emission maximum (in ClC(Cl)Cl) is listed as 495 nm and the emission maximum (in ClCCl) came out at 563 nm.
With `CN(C)c1ccc(/C=C2\CC/C(=C\c3ccc(N(C)C)cc3)C2=O)cc1`, the emission maximum came to 529 nm (in C1CCOC1); 493 nm (in C1COCCO1); 587 nm (in CC#N); 565 nm (in CC(C)=O); 590 nm (in CC(C)O); 613 nm (in CCO). The emission maximum (in CCOC(C)=O) was determined as 528 nm; the emission maximum (in CN(C)C=O) worked out at 575 nm; the emission maximum (in CO) is 635 nm; the emission maximum (in CS(C)=O) was 588 nm; the emission maximum (in Cc1ccccc1) is reported as 482 nm; the emission maximum (in ClC(Cl)(Cl)Cl) worked out at 478 nm. Further, the emission maximum is, setting by setting: (in ClC(Cl)Cl) 543 nm; (in ClCCl) 547 nm; (in S=C=S) 497 nm.
For the setting “in ClCCl”, `Cc1c(C(=O)c2ccccc2Cl)c2ccc3cccc4c5cccc6ccc1c(c65)c2c34` returned an emission maximum of 482 nm.
`Cc1ccc(-c2nc(-c3ccccc3O)[nH]c2-c2ccc(C)cc2)cc1`: the emission maximum (in CO) was 430 nm.
Turning to `Oc1c(-c2ccco2)cccc1-c1nc2ccccc2s1`, the emission maximum by setting is: (in CCO) 575 nm; (in ClCCl) 577 nm; (in O) 569 nm.
`Cc1ccc(/N=C2\N=C(N)c3cccc4cccc2c34)cc1`: the emission maximum (in ClCCl) came out at 498 nm.
For `CC(C)CN1C(=O)/C(=C/c2ccc(C#N)cc2)C=C1c1ccccc1`, the emission maximum (in C1COCCO1) was 598 nm.
On to `Cn1ccc(-c2nc3ccccc3nc2/C=C/N2CCCC2)c1`, for which the emission maximum (in CC#N) is 579.08 nm.
Compound `COC(=O)C1=C(C(=O)OC)C2(c3cc([N+](=O)[O-])ccc3-c3ccc([N+](=O)[O-])cc32)C2(/C=C/c3ccccc3)c3cc(OC)c(OC)cc3CCN12` (stereo unspecified) gave an emission maximum (in ClCCl) of 495 nm.
Regarding `Cc1cc(O)c(C(=O)/C=C/c2ccccc2[N+](=O)[O-])c(=O)o1`, the emission maximum is reported as 480 nm (in CC#N) and 471 nm (in ClCCl).
